Assay results as given in patent publication US7432278B2, “Dicationic imidazo[1,2-a]pyridines and 5,6,7,8-tetrahydro-imidazo[1,2-a]pyridines as antiprotozoal agents” (The University of North Carolina at Chapel Hill, priority 2004, dated 2008).
Structures can show the parent of a compound that is named as a salt. Where two headings read alike, the source gives them in different places.

Experiments:
[1] = system: Trypanosoma brucei rhodesiense; assay: In vitro anti-protozoan activity against T. b. r.; assay type: cell-based; conditions: for IC50: read-out: T.b.r. IC50; for in vitro activity (in words): against T. b. r. and P. f. (Table 1)
Procedure: The DNA binding studies and both the in vitro and in vivo antiprotozoan studies were performed as described by Ismail. M. A., et al., J. Med. Chem., 46, 4761-4769 (2003), which is incorporated herein by reference in its entirety. […]

Plasmodium falciparum = assay: In vitro anti-protozoan activity against P. f.; assay type: cell-based; conditions: concentration that gives 50% growth inhibition, average of duplicate determinations, K = 1,000
Procedure: (§1) The DNA binding studies and both the in vitro and in vivo antiprotozoan studies were performed as described by Ismail. M. A., et al., J. Med. Chem., 46, 4761-4769 (2003), which is incorporated herein by reference in its entirety.

[2] = system: T. b. r. (STIB900 acute infection); assay: In vivo anti-trypanosomal activity in the STIB900 mouse model; conditions: for Survival: average days of survival; for in vivo effectiveness on oral dosage (in words): STIB900 model
Procedure: as §1
In this model five of the diamidines (8a, 8b, 7, 14b, 14a) give 4/4 cures and two, 13a and 14c, give 3/4 cures on intraperitoneal dosage. […] No attempts were made to optimize the formulation. […] One of ordinary skill in the art would appreciate that optimization of the formulation could improve the oral bioavailability of the prodrug.

Poly-(dA.dT)2 = assay: DNA binding studies (ΔTm); conditions: DNA affinity
Procedure: as §1
Table 1 contains the results from the DNA binding studies for the new diamidines and the in vitro results for the compounds tested against T. b. r. and P. f. […] As a representative example of this class of compounds, compound 12 was evaluated and gave a ΔTm value of only 0.3.

[3] = Trypanosoma brucei, RHODESIENSE, concentration that gives 50% growth inhibition, average of duplicate determinations, K = 1,000
[4] = Mus musculus, 1440 h, ip, 20 mg/kg, number of mice that survive and are parasite free for 60 days, read-out: Cures (converted)
[5] = concentration that gives 50% growth inhibition, average of duplicate determinations, K = 1,000
[6] = Mus musculus, 1440 h, po, 100 mg/kg, number of mice that survive and are parasite free for 60 days, read-out: Cures (converted)
[7] = Mus musculus, 1440 h, po, 75 mg/kg, number of mice that survive and are parasite free for 60 days, read-out: Cures

## Cc1cc(C(=N)N)cn2cc(-c3ccc(-c4ccc(C(=N)N)cc4)o3)nc12 [Compound 8b, 2-[5-(4-Amidinophenyl)-furan-2-yl]-8-methyl-imidazo[1,2-a]pyridine-6-carboxamidine]
[1]; [3]
  IC50: 6 nM
Plasmodium falciparum; Plasmodium falciparum
  IC50: 88 nM
[2]; [4]
  responders at 20 mg/kg: 100%
[2]; ip, 20 mg/kg
  Survival: >60 days
Poly-(dA.dT)2
  ΔTm Poly-(dA.dT)2: > 27 °C

## N=C(N)c1ccc(-c2cccc(-c3cn4cc(C(=N)N)ccc4n3)c2)cc1 [Compound 14b, 2-(4′-Amidinobiphenyl-3-yl)-imidazo[1,2-a]pyridine-6-carboxamidine]
[1]; [3]
  IC50: 22 nM
Plasmodium falciparum; Plasmodium falciparum
  IC50: 107 nM
[2]; [4]
  responders at 20 mg/kg: 100%
[2]; ip, 20 mg/kg
  Survival: >60 days
Poly-(dA.dT)2
  ΔTm Poly-(dA.dT)2: > 27 °C

## N=C(NO)c1ccc(-c2cccc(-c3cn4cc(C(=N)NO)ccc4n3)c2)cc1 [Compound 11b, N-Hydroxy-2-[4′-(N-hydroxyamidino)-biphenyl-3-yl]-imidazo[1,2-a]pyridine-6-carboxamidine]
other
  melting point: 252 to 254 °C

## N=C(N)c1ccc(-c2cn3c(n2)CCC(c2ccc(C(=N)N)cc2)C3)cc1 (centres unmarked) [Compound 18]
[1]; [5]
  IC50: 14 nM
Plasmodium falciparum
  IC50: 85 nM

## N=C(N)c1ccc(-c2ccc(-c3cn4cc(C(=N)N)ccc4n3)cc2)cc1 [Compound 14a, 2-(4′-Amidinobiphenyl-4-yl)-imidazo[1,2-a]pyridine-6-carboxamidine]
[1]; [3]
  IC50: 1 nM
Plasmodium falciparum; Plasmodium falciparum
  IC50: 43 nM
[2]; [4]
  responders at 20 mg/kg: 100%
[2]; ip, 20 mg/kg
  Survival: >60 days
Poly-(dA.dT)2
  ΔTm Poly-(dA.dT)2: 24.2 °C

## N=C(N)c1ccc(OCCCCCOc2ccc(C(=N)N)cc2)cc1 [Pentamidine(I), Pentamidine, reference compound]
[2]; [4]
  responders at 20 mg/kg: 0%
[2]; ip, 20 mg/kg
  Survival: 40.8 days
Poly-(dA.dT)2
  ΔTm Poly-(dA.dT)2: 12 °C

## N=C(N)c1ccc(-c2cccc(-c3cn4c(n3)CCC(C(=N)N)C4)c2)cc1 (centres unmarked) (as salt: salt) [Compound 13b, 2-(4′-Amidinobiphenyl-3-yl)-5,6,7,8-tetrahydro-imidazo[1,2-a]pyridine-6-carboxamidine]
other
  melting point: 236 to 238 °C

## N=C(N)c1ccc(-c2ccc(-c3cn4c(n3)CCC(C(=N)N)C4)o2)cc1 (centres unmarked) [Compound 7, 2-[5-(4-Amidinophenyl)-furan-2-yl]-5,6,7,8-tetrahydro-imidazo[1,2-a]pyridine-6-carboxamidine]
[1]; [3]
  IC50: 52 nM
Plasmodium falciparum; Plasmodium falciparum
  IC50: 1200 nM
[2]; Mus musculus, 1440 h, ip, 5 mg/kg, number of mice that survive and are parasite free for 60 days, read-out: Cures (converted)
  responders at 5 mg/kg: 50%
[2]; [4]
  responders at 20 mg/kg: 100%
[2]; ip, 5 mg/kg
  Survival: >51 days
[2]; ip, 20 mg/kg
  Survival: >60 days
Poly-(dA.dT)2
  ΔTm Poly-(dA.dT)2: 15.6 °C

## CONC(=N)c1ccc(-c2ccc(-c3ccc(C(=N)NOC)cc3)o2)cc1 [Compound IIIa, 2,5-Bis[4-(methoxyamidino)phenyl]furan, reference compound]
[1]; [3]
  IC50: 4.5 nM
Plasmodium falciparum; Plasmodium falciparum
  IC50: 15.5 nM
[2]; [6]
  responders at 100 mg/kg: 100%
[2]; po, 100 mg/kg
  Survival: >60 days
Poly-(dA.dT)2
  ΔTm Poly-(dA.dT)2: 25 °C

## N=C(NO)c1ccc(-c2ccc(-c3cn4cc(C(=N)NO)ccc4n3)cc2)cc1 [Compound 11a, N-Hydroxy-2-[4′-(N-hydroxyamidino)-biphenyl-4-yl]-imidazo[1,2-a]pyridine-6-carboxamidine]
[1]; [3]
  IC50: > 166000 nM
[1]
  in vitro activity (in words): essentially no in vitro activity
Plasmodium falciparum; Plasmodium falciparum
  IC50: 521 nM
[2]; [7]
  responders at 75 mg/kg: 0%
[2]
  in vivo effectiveness on oral dosage (in words): did not show high in vivo effectiveness
[2]; po, 75 mg/kg
  Survival: 28 days

## N=C(NO)c1ccc(-c2ccc(-c3cn4cc(C(=N)NO)ccc4n3)o2)cc1 [Compound 5a, N-Hydroxy-2-{5-[4-(N-hydroxyamidino)-phenyl]-furan-2-yl}-imidazo[1,2-a]pyridine-6-carboxamidine]
[1]; [3]
  IC50: 2200 nM
[1]
  in vitro activity (in words): essentially no in vitro activity
Plasmodium falciparum; Plasmodium falciparum
  IC50: 1600 nM
[2]; Mus musculus, 1440 h, po, 50 mg/kg, number of mice that survive and are parasite free for 60 days, read-out: Cures (converted)
  responders at 50 mg/kg: 25%
[2]
  in vivo effectiveness on oral dosage (in words): did not show high in vivo effectiveness
[2]; po, 50 mg/kg
  Survival: >19.5 days

## N=C(N)c1ccc(-c2ccc(-c3cn4c(n3)CCC(C(=N)N)C4)cc2)cc1 (centres unmarked) [Compound 13a, 2-(4′-Amidinobiphenyl-4-yl)-5,6,7,8-tetrahydro-imidazo[1,2-a]pyridine-6-carboxamidine]
[1]; [3]
  IC50: 116 nM
Plasmodium falciparum; Plasmodium falciparum
  IC50: 14 nM
[2]; Mus musculus, 1440 h, ip, 10 mg/kg, number of mice that survive and are parasite free for 60 days, read-out: Cures (converted)
  responders at 10 mg/kg: 75%
[2]; ip, 10 mg/kg
  Survival: >51.5 days
Poly-(dA.dT)2
  ΔTm Poly-(dA.dT)2: 21.3 °C

## CONC(=N)c1ccc(-c2ccc(-c3cn4cc(C(=N)NOC)ccc4n3)cc2)cc1 [Compound 12, N-Methoxy-2-[4′-(N-methoxyamidino)-biphenyl-4-yl]-imidazo[1,2-a]pyridine-6-carboxamidine]
[1]; [3]
  IC50: 5300 nM
[1]
  in vitro activity (in words): essentially no in vitro activity
Plasmodium falciparum; Plasmodium falciparum
  IC50: 395 nM
[2]; [7]
  responders at 75 mg/kg: 0%
[2]
  in vivo effectiveness on oral dosage (in words): did not show high in vivo effectiveness
[2]; po, 75 mg/kg
  Survival: 20 days
Poly-(dA.dT)2
  ΔTm Poly-(dA.dT)2: 0.3 °C

## N=C(N)c1ccc(-c2ccc3nc(-c4ccc(C(=N)N)cc4)cn3c2)cc1 [Compound 19]
[1]; [5]
  IC50: 7 nM
Plasmodium falciparum
  IC50: 92 nM

## Cc1cc(C(=N)N)cn2cc(-c3cccc(-c4ccc(C(=N)N)cc4)c3)nc12 [Compound 14c, 2-(4′-Amidinobiphenyl-3-yl)-8-methyl-imidazo[1,2-a]pyridine-6-carboxamidine]
[1]; [3]
  IC50: 49 nM
Plasmodium falciparum; Plasmodium falciparum
  IC50: 86 nM
[2]; [4]
  responders at 20 mg/kg: 75%
[2]; ip, 20 mg/kg
  Survival: >50 days
Poly-(dA.dT)2
  ΔTm Poly-(dA.dT)2: > 27 °C

## N=C(N)c1ccc(-c2ccc(-c3ccc(C(=N)N)cc3)o2)cc1 [Furamidine(IIa), 2,5-Bis(4-amidinophenyl)furan, reference compound]
[1]; Trypanosoma brucei, RHODESIENSE
  IC50: 14600 nM
[2]; Mus musculus, ip, 1440 h, read-out: Cures
  responders at 20 mg/kg: 0%
[2]; ip, 20 mg/kg
  Survival: 52.5 days

## CONC(=N)c1ccc(-c2ccc(-c3cn4cc(C(=N)NOC)ccc4n3)o2)cc1 [Compound 6, N-Methoxy-2-{5-[4-(N-methoxyamidino)-phenyl]-furan-2-yl}-imidazo[1,2-a]pyridine-6-carboxamidine]
[1]; [3]
  IC50: 3000 nM
[1]
  in vitro activity (in words): essentially no in vitro activity
Plasmodium falciparum; Plasmodium falciparum
  IC50: 2800 nM
[2]; [6]
  responders at 100 mg/kg: 50%
[2]
  in vivo effectiveness on oral dosage (in words): did not show high in vivo effectiveness
[2]; po, 100 mg/kg
  Survival: >39.5 days

## N=C(N)c1ccc(-c2ccc(-c3cn4cc(C(=N)N)ccc4n3)o2)cc1 [Compound 8a, 2-[5-(4-Amidinophenyl)-furan-2-yl]-imidazo[1,2-a]pyridine-6-carboxamidine]
[1]; [3]
  IC50: 63 nM
Plasmodium falciparum; Plasmodium falciparum
  IC50: 14 nM
[2]; [4]
  responders at 20 mg/kg: 100%
[2]; ip, 20 mg/kg
  Survival: >60 days
Poly-(dA.dT)2
  ΔTm Poly-(dA.dT)2: 26.2 °C

## N=C(N)c1ccc(-c2cccc(-c3cn4c(n3)CCC(C(=N)N)C4)c2)cc1 (centres unmarked) [Compound 13b, 2-(4′-Amidinobiphenyl-3-yl)-5,6,7,8-tetrahydro-imidazo[1,2-a]pyridine-6-carboxamidine]
[1]; [3]
  IC50: 226 nM
Plasmodium falciparum; Plasmodium falciparum
  IC50: 86 nM
Poly-(dA.dT)2
  ΔTm Poly-(dA.dT)2: 19.1 °C

## Cc1cc(C(=N)NO)cn2cc(-c3cccc(-c4ccc(C(=N)NO)cc4)c3)nc12 [Compound 11c, N-Hydroxy-2-[4′-(N-hydroxyamidino)-biphenyl-3-yl]-8-methyl-imidazo[1,2-a]pyridine-6-carboxamidine]
other
  melting point: 193 to 195 °C
